Five molecules from ChEMBL document CHEMBL1667821, “Synthesis and galectin-binding activities of mercaptododecyl glycosides containing a terminal β-galactosyl group” (Bioorg Med Chem Lett, 2011) can be followed below.

“And” between values parts separate entries of the source, which are not always exact repeats. Equal values may be shown once. The source made the active and inactive calls. No cut-off for these calls is given here.

Assay [1] addresses T1, Galectin-8 (Homo sapiens) (UniProt O00214).
T1 sequence (whole entry): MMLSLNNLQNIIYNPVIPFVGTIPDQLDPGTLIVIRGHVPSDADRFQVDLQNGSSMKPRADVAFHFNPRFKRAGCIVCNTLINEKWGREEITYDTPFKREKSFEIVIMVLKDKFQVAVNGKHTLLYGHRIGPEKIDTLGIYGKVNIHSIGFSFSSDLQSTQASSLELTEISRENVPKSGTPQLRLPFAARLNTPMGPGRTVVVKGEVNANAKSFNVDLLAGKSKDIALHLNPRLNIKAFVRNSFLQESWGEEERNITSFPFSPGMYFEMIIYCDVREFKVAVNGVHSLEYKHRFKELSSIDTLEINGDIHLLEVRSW
As to the kind of experiment: (§1) Binding affinity to human galectin-8 component 1 by surface plasmon resonance method. (In SPR one partner is held on a chip, and binding of the other changes the refractive index at the surface.)

The target in assay [2] is T2, Galectin-8 (Homo sapiens, UniProt O00214).
T2 sequence (O00214 whole entry): T1 sequence (whole entry)
The description is as §1.

Assay [3] concerns the target Galectin-7 (Homo sapiens) (UniProt P47929). Description: Binding affinity to human galectin-7 by surface plasmon resonance method.
A further assay concerns the target Galectin-3 (Homo sapiens, UniProt P17931). As to the kind of experiment: Binding affinity to human galectin-3 by surface plasmon resonance method.
Assay [4] has as its target T3, Galectin-2 (Homo sapiens) (UniProt P05162).
T3 sequence (whole entry): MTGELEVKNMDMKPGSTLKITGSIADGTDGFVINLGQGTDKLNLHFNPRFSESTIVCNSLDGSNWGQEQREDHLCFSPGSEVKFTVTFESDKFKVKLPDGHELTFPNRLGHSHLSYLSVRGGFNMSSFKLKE
Description: Binding affinity to human galectin-2 by surface plasmon resonance method.

In assay [5] the target is T4, Galectin-4 (Homo sapiens) (UniProt P56470).
T4 sequence (whole entry): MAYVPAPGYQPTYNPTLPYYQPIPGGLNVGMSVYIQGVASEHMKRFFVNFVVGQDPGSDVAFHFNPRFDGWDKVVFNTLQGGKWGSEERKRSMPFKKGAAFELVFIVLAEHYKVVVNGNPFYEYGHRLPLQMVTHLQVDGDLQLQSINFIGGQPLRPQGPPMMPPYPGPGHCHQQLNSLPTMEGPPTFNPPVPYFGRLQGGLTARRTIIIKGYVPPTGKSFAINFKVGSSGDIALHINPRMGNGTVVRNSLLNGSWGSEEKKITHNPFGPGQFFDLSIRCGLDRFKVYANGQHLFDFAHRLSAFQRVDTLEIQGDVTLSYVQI
As to the kind of experiment: Binding affinity to human galectin-4 by surface plasmon resonance method.

Assay [6] addresses Galectin-1 (Homo sapiens) (UniProt P09382). Description: Binding affinity to human galectin-1 by surface plasmon resonance method.
For assay [7], the target named is T4, Galectin-4 (Homo sapiens). Description: (§2) Binding affinity to human galectin-4 component 1 by surface plasmon resonance method.
Assay [8] addresses T5, Galectin-4 (Homo sapiens, UniProt P56470).
T5 sequence (P56470 whole entry): T4 sequence (whole entry)
The assay is described as §2.

The target in assay [9] is T1, Galectin-8 (Homo sapiens). As to the kind of experiment: (§3) Binding affinity to human galectin-8 component 2 by surface plasmon resonance method.
Assay [10] concerns the target T4, Galectin-4 (Homo sapiens). As to the kind of experiment: (§4) Binding affinity to human galectin-4 component 2 by surface plasmon resonance method.
Assay [11] has as its target T5, Galectin-4. The assay is described as §4.
For assay [12], the target named is T1, Galectin-8 (Homo sapiens). Description: Binding affinity to human galectin-8 by surface plasmon resonance method.
Assay [13] has as its target T2, Galectin-8. The description is as §3.

Galectin-3, sequence (P17931 whole entry): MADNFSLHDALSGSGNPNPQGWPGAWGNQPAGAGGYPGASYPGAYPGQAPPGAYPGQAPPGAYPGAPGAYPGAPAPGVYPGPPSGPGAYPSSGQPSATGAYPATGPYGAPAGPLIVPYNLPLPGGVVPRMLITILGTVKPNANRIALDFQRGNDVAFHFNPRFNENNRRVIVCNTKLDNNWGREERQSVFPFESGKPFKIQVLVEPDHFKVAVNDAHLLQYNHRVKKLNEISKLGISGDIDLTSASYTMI
Galectin-7 (Homo sapiens), sequence (P47929 whole entry): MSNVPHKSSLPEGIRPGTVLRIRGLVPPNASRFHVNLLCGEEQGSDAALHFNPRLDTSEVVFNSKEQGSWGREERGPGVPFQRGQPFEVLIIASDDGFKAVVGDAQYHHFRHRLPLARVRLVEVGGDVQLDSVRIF
Galectin-1 (Homo sapiens), sequence (P09382 whole entry): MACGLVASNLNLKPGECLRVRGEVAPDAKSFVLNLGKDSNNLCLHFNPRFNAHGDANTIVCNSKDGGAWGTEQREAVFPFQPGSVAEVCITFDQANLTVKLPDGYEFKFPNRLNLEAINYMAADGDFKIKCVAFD

For the molecule `CC(=O)N[C@H]1[C@@H](OCCCCCCCCCCCCS)O[C@H](CO)[C@@H](O[C@@H]2O[C@H](CO)[C@H](O)[C@H](O)[C@H]2O)[C@@H]1O`, the Ka in assay [1] was determined as 9370 M⁻¹ s⁻¹; on Galectin-3, 5670 M⁻¹ s⁻¹; in assay [7], 2330 M⁻¹ s⁻¹; in assay [9] it was 48700 M⁻¹ s⁻¹; in assay [10] it was 111000 M⁻¹ s⁻¹. Moreover, the Kdiss in assay [1] was 2.18 ×10⁻⁶ /s; on Galectin-3 it was 1.25 ×10⁻² /s; in assay [7], 2.92 ×10⁻³ /s; in assay [9], 2.39 ×10⁻³ /s; in assay [10], 8.6 ×10⁻² /s. Further, the Kd (usually the concentration at which binding is half-saturated) on Galectin-8 [2] is 0.23 nM and 0.233 nM; at Galectin-3, 2200 nM; at Galectin-4 [8] it was 1260 nM; on Galectin-4 [11] it was 780 nM and 777 nM. For the same molecule, the Activity in assay [3] was determined as 0.8 a.u; on Galectin-3, 167 a.u; in [5], 462 a.u; in assay [6], 4.1 a.u; in assay [12], 163 a.u. Also, the outcome in assay [4] was inactive.
As to `OC[C@H]1OC(O[C@H]2[C@H](O)[C@@H](O)[C@H](OCCCCCCCCCCCCS)O[C@@H]2CO)[C@H](O)[C@@H](O)[C@H]1O` (some centres undefined), the Ka was found to be 8970 M⁻¹ s⁻¹ in assay [1]; 1760 M⁻¹ s⁻¹ on Galectin-3; 13000 M⁻¹ s⁻¹ in assay [7]; 9.61e+06 M⁻¹ s⁻¹ in [9]; 172000 M⁻¹ s⁻¹ in assay [10]. For the same molecule, the Kdiss in [1] was 1.39 ×10⁻⁵ /s; on Galectin-3 it was 1.86 ×10⁻³ /s; in assay [7], 1.76 ×10⁻³ /s; in assay [9] it was 2.37 ×10⁻¹ /s; in [10], 1.45 ×10⁻² /s. In addition, the Kd was 1.6 nM and 1.55 nM on Galectin-8 [2]; 1060 nM at Galectin-3; 140 nM and 136 nM on Galectin-4 [8]; 25 nM and 24.6 nM at Galectin-8 [13]; 85 nM and 84.7 nM at Galectin-4 [11]. In addition, the Activity in assay [3] came to 4.2 a.u; on Galectin-3, 82.3 a.u; in assay [4], 2 a.u; in [5] it was 457 a.u; in [6], 9.5 a.u; in assay [12], 368 a.u.
Take `OC[C@H]1O[C@@H](OCCCCCCCCCCCCS)[C@H](O)[C@@H](O)[C@H]1O`: the outcome (in [3]; at Galectin-3) was inactive. In addition, the Activity in assay [4] amounted to 3.8 a.u; in [6], 3.4 a.u; in [12] it was 34.1 a.u. In addition, the outcome in assay [5] was Active.
Turning to `OC[C@H]1O[C@@H](O[C@H]2C=C[C@@H](OCCCCCCCCCCCCS)O[C@@H]2CO)[C@H](O)[C@@H](O)[C@H]1O`, in [3], the result was inactive. Moreover, the Activity came out at 5.1 a.u at Galectin-3, 13.4 a.u in assay [4] and 25.1 a.u in [6]. In addition, the outcome in [5] and in assay [12] was Active.
For the molecule `OC[C@H]1O[C@@H](O[C@H]2[C@H](O)C[C@@H](OCCCCCCCCCCCCS)O[C@@H]2CO)[C@H](O)[C@@H](O)[C@H]1O`, the Ka turned out to be 18600 M⁻¹ s⁻¹ in assay [1]; 1900 M⁻¹ s⁻¹ at Galectin-3; 4630 M⁻¹ s⁻¹ in assay [7]; 35500 M⁻¹ s⁻¹ in assay [9]; 65200 M⁻¹ s⁻¹ in assay [10]. The Kdiss in assay [1] was found to be 6.85 ×10⁻² /s; on Galectin-3, 2.72 ×10⁻³ /s; in [7], 1.41 ×10⁻³ /s; in assay [9], 1.11 ×10⁻¹ /s; in assay [10] it was 3.78 ×10⁻³ /s. Further, the Kd on Galectin-8 [2] is 37 nM and 36.9 nM; on Galectin-3 it was 1430 nM; on Galectin-4 [8] it was 300 nM and 304 nM; at Galectin-8 [13], 31 nM and 31.3 nM; on Galectin-4 [11] it was 58 nM. In assay [3], the outcome was inactive. The Activity on Galectin-3 was determined as 135 a.u; in assay [4], 11 a.u; in assay [5] it was 345 a.u; in assay [6], 17.8 a.u; in assay [12], 74.5 a.u.
